The values below come from PubChem BioAssay (NCI).

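Growth conditions: 96-well plates. Treatment: test compound, 48 hours, 5 concentrations. Analysis: linear interpolation between bracketing concentrations; unreached endpoints set to highest concentration. GI50 is the concentration that inhibits growth by half. Definition used: TGI = concentration required for complete inhibition of growth.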

Common to all, as to assay: growth of human tumour cells (NCI), 48 h
The subject of experiment [1] is 786-0 renal.
For experiment [2], the system named is EKVX NSCLC.
The test system of experiment [3] is KM12 colon.
For experiment [4], the system named is M14 melanoma.
In experiment [5] the test system is NCI-H226 lung.
In experiment [6] the test system is NCI-H522 lung.
Experiment [7] relates to OVCAR-5 ovarian.
For experiment [8], the system named is PC-3 prostate.
For experiment [9], the system named is SN12C renal.
In experiment [10] the test system is HL-60(TB) leukemia.

For `O=C(c1ccccc1)c1c(NCC(O)CN2CCOCC2)n(Cc2ccccc2)c(=O)n(Cc2ccccc2)c1=O` (configuration not stated), the GI50 in experiment [1] is 54.1 µM; in experiment [2], more than 48.6 µM; in [3] it was 40.4 µM; in experiment [4], 38.9 µM; in experiment [5], 31.6 µM; in [6], 38.9 µM. The GI50 in experiment [7] is 5.53 µM; in experiment [8], 39.4 µM; in [9], 46 µM. For the same molecule, the TGI is more than 100 µM in experiment [1]; more than 90.8 µM in experiment [2]; more than 100 µM in [3]; more than 100 µM in [4]; more than 95.1 µM in [5]; more than 100 µM in [6]. For the same molecule, the TGI was more than 78.7 µM in experiment [7], more than 100 µM in experiment [8] and more than 100 µM in [9].

With `Cn1c(-c2ccc(/C=N/NC(=S)N/N=C/c3ccc(-c4c[n+]5ccsc5n4C)cc3)cc2)c[n+]2ccsc12`, the TGI in experiment [1], in [2], in experiment [10], in [3], in experiment [4] and in [6] was more than 100 µM each time. The TGI in experiment [7], in experiment [8] and in [9] was more than 100 µM throughout.

As to `Cc1c(-c2ccnc(N)n2)c2c(n1Cc1ccccc1)C(=O)c1ccccc1C2=O`, the GI50 in experiment [1] is 5.02 µM; in experiment [2], 7.11 µM; in [3], 8.82 µM; in [4], 16.2 µM; in experiment [6], more than 100 µM; in experiment [7] it was 47.4 µM. In addition, the GI50 in experiment [8] is 49.1 µM; in experiment [9], more than 100 µM. Besides, the TGI in [1] is 71 µM; in experiment [2] it was 41.2 µM; in experiment [3], 30.4 µM; in experiment [4], more than 100 µM; in experiment [6], more than 100 µM; in experiment [7], more than 100 µM. Further, the TGI in experiment [8] and in experiment [9] was more than 100 µM throughout.

Regarding `COc1ccc(-c2nc(-c3nc4ccc(F)cc4[nH]3)c3ccccn23)cc1`, the GI50 in experiment [1] is 8.82 µM; in experiment [10], 39.8 µM; in experiment [3] it was 7.03 µM; in [4] it was 12.9 µM; in experiment [5], 2.72 µM; in experiment [6], 4.49 µM. The GI50 in [7] is 45.2 µM; in experiment [8], 6.14 µM; in [9], 13.3 µM. In addition, the TGI in experiment [1] is 61.5 µM; in experiment [10], more than 100 µM; in experiment [3] it was more than 100 µM; in experiment [4], more than 100 µM; in [5] it was 9.06 µM; in experiment [6], 25 µM. For the same molecule, the TGI in experiment [7] was more than 100 µM; in [8], 46.9 µM; in [9], more than 100 µM.

As for `NCCOCCOCCNc1nc(-c2ccc(Cl)cc2)nc(N2CCN(c3ccccn3)CC2)n1`, the GI50 in experiment [1] was 1.83 µM; in experiment [10] it was 2.12 µM; in [3], 1.84 µM; in [5], 13.7 µM; in experiment [7], 2.32 µM; in experiment [8] it was 1.89 µM. The GI50 in [9] is 6.17 µM. In addition, the TGI amounted to 3.61 µM in [1]; 4.15 µM in experiment [10]; 3.5 µM in [3]; 39.9 µM in experiment [5]; 5.11 µM in experiment [7]; 3.92 µM in experiment [8]. The molecule also yielded a TGI in experiment [9] of 20.8 µM.

On to `Cn1cc(C2=C(c3cn(C)c4ccc(Cl)cc34)C(=O)NC2=O)c2ccccc21`, for which the GI50 in experiment [1] was 4.03 µM; in [10], 1.4 µM; in experiment [3], 2.38 µM; in experiment [4], 2.63 µM; in [5], 4.56 µM; in [6] it was 1.34 µM. The GI50 was 9.3 µM in [7], 3.88 µM in experiment [8] and 3.87 µM in experiment [9]. Also, the TGI in [1] was 16.9 µM; in [10], 8.82 µM; in [3] it was 10.4 µM; in experiment [4], more than 24 µM; in experiment [5], 17.4 µM; in [6], 10.5 µM. Besides, the TGI in experiment [7] was more than 21.9 µM; in [8], more than 23.2 µM; in [9] it was 15.7 µM.

As for `CCCCCC[C@H](C)Nc1nc2ccccc2c2occc12`, the GI50 in [1] was 9.87 µM; in experiment [2] it was 2.26 µM; in experiment [10], 11.9 µM; in [3], 10.6 µM; in experiment [4], 7.88 µM; in [6] it was 2.26 µM. Besides, the figures for the GI50 in [7], in experiment [8] and in experiment [9] were 5.54 µM, 14.8 µM and 11.2 µM, respectively. In addition, the TGI turned out to be 21.7 µM in experiment [1]; 7.04 µM in experiment [2]; 37.8 µM in experiment [10]; 32.3 µM in experiment [3]; 20.8 µM in experiment [4]; 13.9 µM in experiment [6]. In addition, the TGI in experiment [7] is 20.3 µM; in experiment [8] it was 35.5 µM; in experiment [9] it was 23.9 µM.

With `c1ccc2c(c1)SCCCSCCSCCCS2`, the TGI in experiment [1], in experiment [2], in [10], in experiment [3], in [4] and in experiment [6] was more than 100 µM throughout. Also, the TGI in [7], in experiment [8] and in experiment [9] was more than 100 µM throughout.

With `COc1ccc(C(=O)NNc2nc(Cl)nc(N3CCN(C(c4ccccc4)c4ccccc4)CC3)n2)cc1`, the GI50 was 3.37 µM in experiment [1]; 3.43 µM in experiment [2]; 2.54 µM in experiment [10]; more than 100 µM in experiment [3]; 1.75 µM in experiment [4]; 18.9 µM in experiment [5]. The GI50 was 13.2 µM in [7], 1.74 µM in [8] and 1.71 µM in experiment [9]. Also, the TGI in [1] is 12.9 µM; in [2], 14.8 µM; in experiment [10], 10.5 µM; in experiment [3], more than 100 µM; in experiment [4], 3.58 µM; in [5], 45.1 µM. In addition, the TGI came out at 33.2 µM in experiment [7], 3.59 µM in [8] and 3.19 µM in experiment [9].

On to `Cc1cc(N=C2C=C(Br)C(=O)C(Br)=C2)cc(CN(CC(=O)O)CC(=O)O)c1O`, for which the TGI in experiment [1], in experiment [2], in experiment [10], in [4], in experiment [5] and in experiment [6] was more than 100 µM throughout. The TGI in experiment [7], in experiment [8] and in experiment [9] was more than 100 µM in each case.
